In ChEMBL document CHEMBL1201862, “PubChem BioAssay data set” (2004):
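Following 48 hours of exposure in 96-well plates, responses at five concentrations were used to interpolate endpoints linearly. GI50 is the concentration that inhibits growth by half.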 The source made the active and inactive calls. Rule as the data show it: active = GI50 up to about 1.1 µM and inactive = higher. Starred links: 1 amine or outer side, 2 acyl side, 3 side chain; linkers in the order of their positions; H or OH if unused. Non-standard residues stand in square brackets, D forms with d. Residues, ends and D or L forms follow the SMILES beside them. *: point of attachment. X34 = CC(=O)N(C)SCC(N[*:1])C(=O)[*:2]; Cbz = O=C(OCc1ccccc1)*; Bn = c1ccc(C*)cc1; For = O=C*

Experiments:
Test in all cases: NCI anticancer screen, dose series, 48 h
ACHN = test system: ACHN
BT-549 = test system: BT-549
CCRF-CEM = test system: CCRF-CEM
IGROV-1 = test system: IGROV-1
KM12 = test system: KM12
LOX IMVI = test system: LOX IMVI
M14 = test system: M14
MCF7 = test system: MCF7
MOLT-4 = test system: MOLT-4
OVCAR-4 = test system: OVCAR-4
OVCAR-5 = test system: OVCAR-5
RPMI-8226 = test system: RPMI-8226
SF-268 = test system: SF-268
SF-295 = test system: SF-295
SF-539 = test system: SF-539
SK-MEL-28 = test system: SK-MEL-28
SK-MEL-5 = test system: SK-MEL-5
SNB-75 = test system: SNB-75
U-251 = test system: U-251
UACC-257 = test system: UACC-257

Measured: GI50

CC(=O)N(C)SCC(NC(=O)C(Cc1ccccc1)NC(=O)OCc1ccccc1)C(=O)NC(Cc1ccccc1)C(=O)NC(Cc1cn(C=O)c2ccccc12)C(=O)NC(CCCCNC(=O)OCc1ccccc1)C(=O)NC(C(=O)NC(CSN(C)C(C)=O)C(=O)NC(C(N)=O)C(C)OCc1ccccc1)C(C)OCc1ccccc1 (stereo not given) (Cbz-F[X34]FW(For)K(Cbz)T(Bn)[X34]T(Bn)-NH2; configuration not given here)
inactive: ACHN > 100 µM | BT-549 21.1 µM | CCRF-CEM > 100 µM | IGROV-1 68.9 µM | KM12 > 100 µM | LOX IMVI > 100 µM | M14 46.9 µM | MCF7 > 100 µM | MOLT-4 > 100 µM | OVCAR-4 54.2 µM | OVCAR-5 > 100 µM | RPMI-8226 > 100 µM | SF-268 > 100 µM | SF-295 16.1 µM | SF-539 44 µM | SK-MEL-28 > 100 µM | SK-MEL-5 > 100 µM | SNB-75 11.3 µM | U-251 32.2 µM | UACC-257 > 100 µM
